From ChEMBL document CHEMBL3868595, “Plazomicin is effective in a non-human primate pneumonic plague model” (Bioorg Med Chem, 2016)

Experiments:
African green monkey [1] = assay: Toxicity in African green monkey B6408 model infected with Yersinia pestis Colorado 92 assessed as serum lactate dehydrogenase level at 25 mg/kg, iv administered within 6 hrs post onset of sustained fever as 30 mins infusion for 10 days (reference value: 249 IU/L); format: organism-based; details: chlorocebus sabaeus, in vivo
Yersinia pestis [2] = assay: Antibacterial activity against Yersinia pestis Colorado 92 infected in African green monkey B6873 model assessed as bacterial burden in blood at 12.5 mg/kg, iv administered within 6 hrs post onset of sustained fever as 30 mins infusion for 5 days (reference value: 1.2 10^7CFU/ml); format: functional, organism-based; details: CO92
[3] = Volume of distribution at steady state in African green monkey blood at 35 mg/kg administered as iv infusion twice daily for 7 consecutive days measured on day 7 by LC-MS/MS analysis; format: ADME, organism-based; details: chlorocebus aethiops, read-out: Vdss
African green monkey [4] = assay: Toxicity in African green monkey B6140 model infected with Yersinia pestis Colorado 92 assessed as serum creatinine level at 25 mg/kg, iv administered within 6 hrs post onset of sustained fever as 30 mins infusion for 10 days (reference value: 0.8 mg/dl); format: organism-based; details: chlorocebus sabaeus, in vivo
Yersinia pestis [5] = assay: Antibacterial activity against Yersinia pestis Colorado 92 infected in African green monkey assessed as survival of monkey at 6.25 mg/kg, iv administered within 6 hrs post onset of sustained fever as 30 mins infusion for 5 days; format: functional; details: CO92, iv
[6] = Cmax in African green monkey blood at 25 mg/kg administered as iv infusion twice daily for 7 consecutive days measured on day 1 by LC-MS/MS analysis; format: ADME, organism-based; set-up: dose 25 mg/kg, route intravenous; details: chlorocebus aethiops
African green monkey [7] = assay: Toxicity in African green monkey B6408 model infected with Yersinia pestis Colorado 92 assessed as serum creatinine level at 25 mg/kg, iv administered within 6 hrs post onset of sustained fever as 30 mins infusion for 10 days (reference value: 0.5 mg/dl); format: organism-based; details: chlorocebus sabaeus, in vivo
[8] = Toxicity in African green monkey B6140 model infected with Yersinia pestis Colorado 92 assessed as total white blood cell count at 25 mg/kg, iv administered within 6 hrs post onset of sustained fever as 30 mins infusion for 10 days (reference value: 6.8 10^3/microL); format: organism-based; details: chlorocebus aethiops, in vivo
African green monkey [9] = assay: Toxicity in African green monkey B6291 model infected with Yersinia pestis Colorado 92 assessed as blood urea nitrogen level at 25 mg/kg, iv administered within 6 hrs post onset of sustained fever as 30 mins infusion for 10 days (reference value: 24 mg/dl); format: organism-based; details: chlorocebus sabaeus, in vivo
Yersinia pestis [10] = assay: (§1) Antibacterial activity against Yersinia pestis Colorado 92 infected in African green monkey B6889 model assessed as bacterial burden in liver at 6.25 mg/kg, iv administered within 6 hrs post onset of sustained fever as 30 mins infusion for 5 days (reference value: 5.2 10^8CFU/g); format: functional, CO92
African green monkey [11] = assay: Toxicity in African green monkey 7337 model infected with Yersinia pestis Colorado 92 assessed as blood urea nitrogen level at 25 mg/kg, iv administered within 6 hrs post onset of sustained fever as 30 mins infusion for 10 days (reference value: 15 mg/dl); format: organism-based; details: chlorocebus sabaeus, in vivo
Yersinia pestis [12] = assay: Antibacterial activity against Yersinia pestis Colorado 92 infected in African green monkey B6436 model assessed as bacterial burden in liver at 25 mg/kg, iv administered within 6 hrs post onset of sustained fever as 30 mins infusion for 5 days (reference value: 5.2 10^8CFU/g); format: functional, organism-based; details: CO92
Yersinia pestis [13] = assay: Antibacterial activity against Yersinia pestis Colorado 92 infected in African green monkey C2149 model assessed as bacterial burden in brain at 6.25 mg/kg, iv administered within 6 hrs post onset of sustained fever as 30 mins infusion for 5 days (reference value: 1.9 10^6CFU/g); format: functional, CO92
Yersinia pestis [14] = assay: as §1, with “monkey 8047” for “monkey B6889”, “in tracheobronchial lymph nodes” for “in liver”, “for 10” for “for 5”, “value: 7.7 10^9CFU/g)” for “value: 5.2 10^8CFU/g)”; format: functional, CO92, Lymph node
Yersinia pestis [15] = assay: Antibacterial activity against Yersinia pestis Colorado 92 infected in African green monkey C2083 model assessed as bacterial burden in heart at 12.5 mg/kg, iv administered within 6 hrs post onset of sustained fever as 30 mins infusion for 5 days (reference value: 2.6 10^7CFU/g); format: functional, CO92
African green monkey [16] = assay: Toxicity in African green monkey 7929 model infected with Yersinia pestis Colorado 92 assessed as serum alanine aminotransferase level at 25 mg/kg, iv administered within 6 hrs post onset of sustained fever as 30 mins infusion for 10 days (reference value: 63 IU/L); format: organism-based; details: chlorocebus sabaeus, in vivo
[17] = Toxicity in African green monkey B6408 model infected with Yersinia pestis Colorado 92 assessed as total white blood cell count at 25 mg/kg, iv administered within 6 hrs post onset of sustained fever as 30 mins infusion for 10 days (reference value: 6.9 10^3/microL); format: organism-based; details: chlorocebus aethiops, in vivo
Yersinia pestis [18] = assay: Antibacterial activity against Yersinia pestis Colorado 92 infected in African green monkey B6988 model assessed as bacterial burden in spleen at 6.25 mg/kg, iv administered within 6 hrs post onset of sustained fever as 30 mins infusion for 5 days (reference value: 1.6 10^9CFU/g); format: functional, CO92
[19] = Toxicity in African green monkey 8067 model infected with Yersinia pestis Colorado 92 assessed as total white blood cell count at 25 mg/kg, iv administered within 6 hrs post onset of sustained fever as 30 mins infusion for 10 days (reference value: 10 10^3/microL); format: organism-based; details: chlorocebus aethiops, in vivo
Yersinia pestis [20] = assay: Antibacterial activity against Yersinia pestis Colorado 92 infected in African green monkey C2149 model assessed as bacterial burden in liver at 6.25 mg/kg, iv administered within 6 hrs post onset of sustained fever as 30 mins infusion for 5 days (reference value: 5.2 10^8CFU/g); format: functional, CO92
Yersinia pestis [21] = assay: Antibacterial activity against Yersinia pestis Colorado 92 infected in African green monkey B6415 model assessed as bacterial burden in liver at 25 mg/kg, iv administered within 6 hrs post onset of sustained fever as 30 mins infusion for 5 days (reference value: 5.2 10^8CFU/g); format: functional, CO92
African green monkey [22] = assay: Toxicity in African green monkey assessed as effect on serum creatinine level at 25 mg/kg administered as iv infusion twice daily for 7 consecutive days measured on day 7 by LC-MS/MS analysis; format: organism-based; details: chlorocebus sabaeus, in vivo
Yersinia pestis [23] = assay: Antibacterial activity against Yersinia pestis Colorado 92 infected in African green monkey B6988 model assessed as bacterial burden in kidney at 6.25 mg/kg, iv administered within 6 hrs post onset of sustained fever as 30 mins infusion for 5 days (reference value: 7.1 10^7CFU/g); format: functional, CO92
African green monkey [24] = assay: Toxicity in African green monkey 8067 model infected with Yersinia pestis Colorado 92 assessed as serum gamma glutamyl-transferase level at 25 mg/kg, iv administered within 6 hrs post onset of sustained fever as 30 mins infusion for 10 days (reference value: 40 IU/L); format: organism-based; details: chlorocebus sabaeus, in vivo
Yersinia pestis [25] = assay: Antibacterial activity against Yersinia pestis Colorado 92 infected in African green monkey B6872 model assessed as bacterial burden in kidney at 25 mg/kg, iv administered within 6 hrs post onset of sustained fever as 30 mins infusion for 5 days (reference value: 7.1 10^7CFU/g); format: functional, organism-based; details: CO92
Yersinia pestis [26] = assay: Antibacterial activity against Yersinia pestis Colorado 92 infected in African green monkey B6861 model assessed as bacterial burden in spleen at 6.25 mg/kg, iv administered within 6 hrs post onset of sustained fever as 30 mins infusion for 5 days (reference value: 1.6 10^9CFU/g); format: functional, CO92

Structure (SMILES): CN[C@@H]1[C@@H](O)[C@@H](O[C@@H]2[C@@H](O)[C@H](O[C@H]3OC(CNCCO)=CC[C@H]3N)[C@@H](N)C[C@H]2NC(=O)[C@@H](O)CCN)OC[C@]1(C)O [PLAZOMICIN]
- Activity (African green monkey [1]): 304 IU/L
- Activity (Yersinia pestis [2]): Below limit of detection
- Vd [3]: 0.31 L/kg
- Activity (African green monkey [4]): 0.7 mg/dL
- survival at 6.25 mg/kg (Yersinia pestis [5]): 17%
- Cmax [6]: 96 µg/mL
- Activity (African green monkey [7]): 0.4 mg/dL
- Activity [8]: 7.2 ×10³ /uL
- Activity (African green monkey [9]): 21 mg/dL
- Activity (Yersinia pestis [10]): 2.2 ×10⁷ CFU/g
- Activity (African green monkey [11]): 18 mg/dL
- Activity (Yersinia pestis [12]): Below limit of detection
- Activity (Yersinia pestis [13]): 46 CFU/g
- Activity (Yersinia pestis [14]): 2 ×10⁹ CFU/g
- Activity (Yersinia pestis [15]): 1.5 ×10⁷ CFU/g
- Activity (African green monkey [16]): 41 IU/L
- Activity [17]: 5.5 ×10³ /uL
- Activity (Yersinia pestis [18]): 17 CFU/g
- Activity [19]: 9.4 ×10³ /uL
- Activity (Yersinia pestis [20]): 1 ×10⁶ CFU/g
- Activity (Yersinia pestis [21]): 2 ×10⁶ CFU/g
- Activity (African green monkey [22]): 0.55 mg/dL
- Activity (Yersinia pestis [23]): 23 CFU/g
- Activity (African green monkey [24]): 26 IU/L
- Activity (Yersinia pestis [25]): Below limit of detection
- Activity (Yersinia pestis [26]): 95 CFU/g
